In patent publication US9580463B2 (BRISTOL-MYERS SQUIBB COMPANY, priority 2013, dated 2017) one finds EC50 data, which are given here for nine compounds.

Structures are written as SMILES.

The test system of the first assay is HCV genotype 1b (Con1) replicon in HUH-7 cells. Description: HCV replicon luciferase reporter assay, genotype 1b. The assay is classed as cell-based. Particulars: Hepatitis C virus, 72 h, genotype 1b replicon, 3 days incubation, read-out: LE_1b (EC50). The source says:
An HCV replicon whole cell system was established as described by Lohmann V, Korner F, Koch J, Herian U, Theilmann L, Bartenschlager R., Science 285(5424):110-3 (1999) and modified to introduce a luciferase reporter, as first described by Krieger et al (Krieger N, Lohmann V, and Bartenschlager R, J. Virol. 75(10):4614-4624 (2001)). CDNA encoding a humanized form of the Renilla luciferase gene and a linker sequence fused directly to the 3′-end of the luciferase gene were introduced into the replicon construct using an Asc1 restriction site located in core, directly upstream of the neomycin marker gene. The adaptive mutation at position 1179 (serine to isoleucine) was also introduced (Blight K J, Kolykhalov, A A, Rice, C M, Science 290(5498):1972-1974). A stable cell line constitutively expressing this HCV replicon construct was generated by first linearizing plasmid DNAs with ScaI. RNA transcripts were synthesized in vitro using the T7 MegaScript transcription kit (Ambion, Austin, Tex.) according to manufacturer's directions. In vitro transcripts of the cDNA were transfected into the human hepatoma cell line, HUH-7. […] Resulting cell lines were characterized for positive and negative strand RNA production and protein production over time. […]
HCV replicon luciferase assays were developed to monitor the inhibitory effects of compounds described in the disclosure on HCV genotypes 1a and 1b viral replication. HUH-7 cells, constitutively expressing the HCV replicon, were grown in Dulbecco's Modified Eagle Media (DMEM) (Gibco-BRL) containing 10% Fetal calf serum (FCS) (Sigma) and 1 mg/mL G418 (Gibco-BRL). Compounds were serially diluted 3 folds in DMSO for a twenty-point titration and subsequently transferred to sterile 384-well tissue-culture treated plates (Corning cat #3571). The plates were then seeded with 50 μL of cells at a density of 3.0×10^3 cells/well in DMEM containing 4% FCS (final DMSO concentration at 0.5%). After 3 days incubation at 37° C., cells were analyzed for Renilla Luciferase activity using the EnduRen as substrate (Promega cat #E6485). The EnduRen substrate was diluted in DMEM and then added to the plates to a final concentration of 7.5 μM. The plates were incubated for 2 hrs at 37° C. and then read immediately for 30 seconds with Viewlux Imager (PerkinElmer) using a luminescence program. To assess cytotoxicity of compounds, CC50 values were generated by multiplexing the EnduRen-containing plates with Cell Titer-Blue (Promega, cat # G8082). Cell-Titer Blue (3 μL) was added to each well and incubated for 8 hrs at 37° C. The fluorescence signal from each well was read, with an excitation wavelength at 525/10 nm and an emission wavelength of 598/10 nm, using the Viewlux Imager.
The EC50 values for compounds were calculated by using a four-parameter logistic equation: y=A+((B−A)/(1+((C/x)^D))), where A and B denotes minimal and maximal % inhibition, respectively, C is the EC50, D is the hill slope and x represents compound concentration.
As for `CCOc1cnc(O[C@@H]2C[C@H]3C(=O)N[C@]4(C(=O)NS(=O)(=O)C5(C)CC5)C[C@H]4/C=C\CC[C@H](C)C[C@@H](COC)[C@H](NC(=O)OC(C)(C)C(C)(F)F)C(=O)N3C2)c2ccc(OC)cc12` [Compound 1067, 3,3-difluoro-2-methylbutan-2-yl ((2R,6S,7R,9S,13aS,14aR,16aS,Z)-2-((4-ethoxy-6-methoxyisoquinolin-1-yl)oxy)-7-(methoxymethyl)-9-methyl-14a-(((1-methylcyclopropyl)sulfonyl)carbamoyl)-5,16-dioxo-1,2,3,5,6,7,8,9,10,11,13a,14,14a,15,16,16a-hexadecahydrocyclopropa[e]pyrrolo[1,2-a][1,4]diazacyclopentadecin-6-yl)carbamate], the concentration for a half-maximal effect (EC50) is 0.5 nM.

Still in this assay, the particulars now being: Hepatitis C virus, 72 h, genotype 1b replicon, 3 days incubation, read-out: LE_1b (EC50, range).
For the compound `COC[C@@H]1C[C@H](C)CC/C=C\[C@@H]2C[C@@]2(C(=O)NS(=O)(=O)C2(C)CC2)NC(=O)[C@@H]2C[C@@H](Oc3nc(OC)c4c(OC)cccc4n3)CN2C(=O)[C@H]1NC(=O)OC(C)(C)C(F)(F)F` [Compound 1060, 1,1,1-trifluoro-2-methylpropan-2-yl ((2R,6S,7R,9R,13aS,14aR,16aS,Z)-2-((4,5-dimethoxyquinazolin-2-yl)oxy)-7-(methoxymethyl)-9-methyl-14a-(((1-methylcyclopropyl)sulfonyl)carbamoyl)-5,16-dioxo-1,2,3,5,6,7,8,9,10,11,13a,14,14a,15,16,16a-hexadecahydrocyclopropa[e]pyrrolo[1,2-a][1,4]diazacyclopentadecin-6-yl)carbamate], the 50% effective concentration (EC50) lay within 1.01 to 5 nM.
`COC[C@@H]1C[C@H](C)CC/C=C\[C@@H]2C[C@@]2(C(=O)NS(=O)(=O)C2(C)CC2)NC(=O)[C@@H]2C[C@@H](Oc3nc(OC)c4c(OC)cccc4n3)CN2C(=O)[C@H]1NC(=O)OC(C)(C)C` [Compound 1061, tert-butyl ((2R,6S,7R,9R,13aS,14aR,16aS,Z)-2-((4,5-dimethoxyquinazolin-2-yl)oxy)-7-(methoxymethyl)-9-methyl-14a-(((1-methylcyclopropyl)sulfonyl)carbamoyl)-5,16-dioxo-1,2,3,5,6,7,8,9,10,11,13a,14,14a,15,16,16a-hexadecahydrocyclopropa[e]pyrrolo[1,2-a][1,4]diazacyclopentadecin-6-yl)carbamate]: the EC50 was 5.01 to 35 nM.
As for `COC[C@@H]1C[C@H](C)CC/C=C\[C@@H]2C[C@@]2(C(=O)NS(=O)(=O)C2(C)CC2)NC(=O)[C@@H]2C[C@@H](Oc3nc(OC)c4c(OC)cccc4n3)CN2C(=O)[C@H]1NC(=O)OC(C)(C)C(C)(F)F` [Compound 1062, 3,3-difluoro-2-methylbutan-2-yl ((2R,6S,7R,9R,13aS,14aR,16aS,Z)-2-((4,5-dimethoxyquinazolin-2-yl)oxy)-7-(methoxymethyl)-9-methyl-14a-(((1-methylcyclopropyl)sulfonyl)carbamoyl)-5,16-dioxo-1,2,3,5,6,7,8,9,10,11,13a,14,14a,15,16,16a-hexadecahydrocyclopropa[e]pyrrolo[1,2-a][1,4]diazacyclopentadecin-6-yl)carbamate], the concentration for a half-maximal effect (EC50) is 1.01 to 5 nM.
Regarding `CCOc1cnc(O[C@@H]2C[C@H]3C(=O)N[C@]4(C(=O)NS(=O)(=O)C5(C)CC5)C[C@H]4/C=C\CC[C@H](C)C[C@@H](COC)[C@H](NC(=O)OC(C)(C)C)C(=O)N3C2)c2ccc(OC)cc12` [Compound 1063, tert-butyl ((2R,6S,7R,9S,13aS,14aR,16aS,Z)-2-((4-ethoxy-6-methoxyisoquinolin-1-yl)oxy)-7-(methoxymethyl)-9-methyl-14a-(((1-methylcyclopropyl)sulfonyl)carbamoyl)-5,16-dioxo-1,2,3,5,6,7,8,9,10,11,13a,14,14a,15,16,16a-hexadecahydrocyclopropa[e]pyrrolo[1,2-a][1,4]diazacyclopentadecin-6-yl)carbamate], the half-maximal effective concentration (EC50) lay within 0.1 to 0.5 nM.
`CCOc1cnc(O[C@@H]2C[C@H]3C(=O)N[C@]4(C(=O)NS(=O)(=O)C5(C)CC5)C[C@H]4/C=C\CC[C@@H](C)C[C@@H](COC)[C@H](NC(=O)OC(C)(C)C)C(=O)N3C2)c2ccc(OC)cc12` [Compound 1064, tert-butyl ((2R,6S,7R,9R,13aS,14aR,16aS,Z)-2-((4-ethoxy-6-methoxyisoquinolin-1-yl)oxy)-7-(methoxymethyl)-9-methyl-14a-(((1-methylcyclopropyl)sulfonyl)carbamoyl)-5,16-dioxo-1,2,3,5,6,7,8,9,10,11,13a,14,14a,15,16,16a-hexadecahydrocyclopropa[e]pyrrolo[1,2-a][1,4]diazacyclopentadecin-6-yl)carbamate]: the half-maximal effective concentration (EC50) was in the range of 0.1 to 0.5 nM.
As for `CCOc1cnc(O[C@@H]2C[C@H]3C(=O)N[C@]4(C(=O)NS(=O)(=O)C5(C)CC5)C[C@H]4/C=C\CC[C@H](C)C[C@@H](COC)[C@H](NC(=O)OC(C)(C)C(F)(F)F)C(=O)N3C2)c2ccc(OC)cc12` [Compound 1065, 1,1,1-trifluoro-2-methylpropan-2-yl ((2R,6S,7R,9S,13aS,14aR,16aS,Z)-2-((4-ethoxy-6-methoxyisoquinolin-1-yl)oxy)-7-(methoxymethyl)-9-methyl-14a-(((1-methylcyclopropyl)sulfonyl)carbamoyl)-5,16-dioxo-1,2,3,5,6,7,8,9,10,11,13a,14,14a,15,16,16a-hexadecahydrocyclopropa[e]pyrrolo[1,2-a][1,4]diazacyclopentadecin-6-yl)carbamate], the EC50 fell in the range of 0.1 to 0.5 nM.
As to `CCOc1cnc(O[C@@H]2C[C@H]3C(=O)N[C@]4(C(=O)NS(=O)(=O)C5(C)CC5)C[C@H]4/C=C\CC[C@@H](C)C[C@@H](COC)[C@H](NC(=O)OC(C)(C)C(F)(F)F)C(=O)N3C2)c2ccc(OC)cc12` [Compound 1066, 1,1,1-trifluoro-2-methylpropan-2-yl ((2R,6S,7R,9R,13aS,14aR,16aS,Z)-2-((4-ethoxy-6-methoxyisoquinolin-1-yl)oxy)-7-(methoxymethyl)-9-methyl-14a-(((1-methylcyclopropyl)sulfonyl)carbamoyl)-5,16-dioxo-1,2,3,5,6,7,8,9,10,11,13a,14,14a,15,16,16a-hexadecahydrocyclopropa[e]pyrrolo[1,2-a][1,4]diazacyclopentadecin-6-yl)carbamate], the EC50 was 0.1 to 0.5 nM.
As for `CCOc1cnc(O[C@@H]2C[C@H]3C(=O)N[C@]4(C(=O)NS(=O)(=O)C5(C)CC5)C[C@H]4/C=C\CC[C@@H](C)C[C@@H](COC)[C@H](NC(=O)OC(C)(C)C(C)(F)F)C(=O)N3C2)c2ccc(OC)cc12` [Compound 1068, 3,3-difluoro-2-methylbutan-2-yl ((2R,6S,7R,9R,13aS,14aR,16aS,Z)-2-((4-ethoxy-6-methoxyisoquinolin-1-yl)oxy)-7-(methoxymethyl)-9-methyl-14a-(((1-methylcyclopropyl)sulfonyl)carbamoyl)-5,16-dioxo-1,2,3,5,6,7,8,9,10,11,13a,14,14a,15,16,16a-hexadecahydrocyclopropa[e]pyrrolo[1,2-a][1,4]diazacyclopentadecin-6-yl)carbamate], the EC50 was in the range of 0.1 to 0.5 nM.
